Columns and labels:
[1] = tested on: T. cruzi infected J774 macrophages; assay: T. cruzi growth inhibition in infected J774 macrophages (cell survival); type: cell-based, Trypanosoma cruzi CA-I/72; settings: 10 µM inhibitor every 48 h until Day 27, experiment terminated on Day 47, untreated control 6 days
Protocol: CA-I/72 T. cruzi parasites were isolated from a chronic Chagasic patient, cloned, and maintained as previously described.[33]
For growth inhibition studies, J774 macrophages cultured in RPMI-1640 medium with 5% heat inactivated fetal calf serum (FCS) were irradiated (9000 rad) to arrest the cell cycle and plated onto 12-well tissue culture plates for 24 h at 37°C. After infection with 10^5 T. cruzi trypomastigotes per well for 2 hours, monolayers were washed with RPMI medium and treated with the inhibitors at 10 µM in RPMI medium (triplicate wells per inhibitor). Inhibitor stocks were made to 10 mM in DMSO and diluted prior to use. All assays include untreated, K11777-treated, and uninfected macrophage controls. Fresh medium with or without inhibitor was replaced every 48 h and inhibitor efficacy was monitored daily. Survival time was defined as the time before the cell monolayer was destroyed by the infection. Under these culture conditions, T. cruzi completed the intracellular cycle in 6 days in untreated controls. […] Macrophages were subsequently cultured in normal medium for up to 40 days to elucidate if the effective inhibitors were trypanocidal (cure host macrophages) or trypanostatic (delay intracellular cycle of the parasite).

cathepsin H = molecular target: T1, cathepsin H (Homo sapiens, UniProt P09668); assay: Protease inhibition profiling (Reaction Biology Corp): cathepsin H; type: biochemical; settings: panel of 70 proteases
T1 construct: Reaction Biology Corp (screening service)
T1 sequence (P09668 98-335): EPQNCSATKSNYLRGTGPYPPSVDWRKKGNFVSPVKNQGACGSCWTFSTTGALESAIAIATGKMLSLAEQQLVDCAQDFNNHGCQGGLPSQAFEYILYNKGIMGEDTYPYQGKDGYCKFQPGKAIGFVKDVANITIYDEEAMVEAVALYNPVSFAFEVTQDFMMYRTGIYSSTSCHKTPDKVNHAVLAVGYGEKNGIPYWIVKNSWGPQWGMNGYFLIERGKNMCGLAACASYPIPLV

SMILES: CN1CCN(C(=O)N[C@@H](CCCNC(=N)N)C(=O)N[C@H](/C=C/S(=O)(=O)c2ccccc2)CCc2ccccc2)CC1 [WRR-483]
- T. cruzi infected cell survival [1]: 47 days
- inhibition of cathepsin H (cathepsin H): no inhibition

Reference: paper PMC2939063, “In Vitro and In Vivo Studies of the Trypanocidal Properties of WRR-483 against Trypanosoma cruzi” (PLoS Neglected Tropical Diseases, 2010)
